Measured values from patent EP4663640A1 (Shanghai Institute of Materia Medica, Chinese Academy of …, priority 2023, dated 2024).
Where two headings read alike, the source gives them in different places.

How the values were obtained:
[1] = target: T1, hTRPC4 (Homo sapiens, UniProt Q9UBN4); experiment: TRPC4 inhibitory activity assay (FLIPR calcium fluorescence); format: cell-based
T1 construct: expressed in transfected cells; host or cells: HEK-293
T1 sequence (Q9UBN4 1-977): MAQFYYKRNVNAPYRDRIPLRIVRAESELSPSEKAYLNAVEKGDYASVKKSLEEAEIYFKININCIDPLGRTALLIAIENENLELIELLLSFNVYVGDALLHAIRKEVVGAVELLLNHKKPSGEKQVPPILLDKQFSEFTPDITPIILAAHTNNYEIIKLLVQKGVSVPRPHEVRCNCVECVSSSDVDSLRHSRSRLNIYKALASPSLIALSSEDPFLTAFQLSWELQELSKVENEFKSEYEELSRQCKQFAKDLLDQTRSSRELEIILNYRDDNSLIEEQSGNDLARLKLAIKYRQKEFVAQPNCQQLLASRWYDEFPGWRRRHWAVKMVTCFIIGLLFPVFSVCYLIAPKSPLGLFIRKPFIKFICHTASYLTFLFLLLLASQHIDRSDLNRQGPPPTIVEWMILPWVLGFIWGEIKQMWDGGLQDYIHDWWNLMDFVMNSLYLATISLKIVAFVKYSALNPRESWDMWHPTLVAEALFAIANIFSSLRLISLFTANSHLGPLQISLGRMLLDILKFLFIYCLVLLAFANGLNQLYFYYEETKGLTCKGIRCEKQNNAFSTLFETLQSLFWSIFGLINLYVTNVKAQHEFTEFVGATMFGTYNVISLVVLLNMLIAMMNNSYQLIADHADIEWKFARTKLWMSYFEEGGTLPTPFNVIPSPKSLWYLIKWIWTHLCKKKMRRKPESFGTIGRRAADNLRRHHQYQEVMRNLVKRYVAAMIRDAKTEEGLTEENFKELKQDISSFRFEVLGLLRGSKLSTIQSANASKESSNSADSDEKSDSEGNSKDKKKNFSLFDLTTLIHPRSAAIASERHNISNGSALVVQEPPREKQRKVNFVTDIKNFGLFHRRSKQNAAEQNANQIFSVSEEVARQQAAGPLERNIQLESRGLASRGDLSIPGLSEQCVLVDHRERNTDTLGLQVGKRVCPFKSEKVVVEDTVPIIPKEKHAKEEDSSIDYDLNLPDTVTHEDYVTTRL
Experimental: (§1) HEK-293 cells expressing hTRPC3, hTRPC4 or hTRPC5 were seeded into black-bottomed 96-well plates coated with poly-lysine (PDL), with 2×10^4 cells per well. After 8 h of culture, the original culture medium was discarded, and 60 µL of Fluo-4/AM dye with a final concentration of 4 µM was added. The plates were incubated at 37 °C for 60 min, and then rinsed five times with calcium flow detection buffer. […] Then, the agonist Englerin A (EA) (MedChemExpress, Shanghai, China, final concentration of 0.3nM) was added, and the fluorescence signal was collected for 600 seconds. The fluorescence signal of the trajectory diagram is represented by F/F0, wherein F is the fluorescence signal at different time points, and F0 is the basic fluorescence signal, that is, the average value of the fluorescence signal at the first 10 time points. […] The area under the curve of the change in fluorescence intensity after adding EA was calculated. IC50 value was calculated using log[Inhibitor] vs. response - Variable slope, taking into account the area under the curve and the log value of the concentration of the compound.

[2] = target: T2, hTRPC3 (Homo sapiens, UniProt Q13507); experiment: TRPC3 inhibitory activity assay (FLIPR calcium fluorescence); format: cell-based; conditions: for relative selectivity TRPC3/ TRPC5: ratio of IC50 values
T2 construct: expressed in transfected cells; host or cells: HEK-293
T2 sequence (Q13507 1-921): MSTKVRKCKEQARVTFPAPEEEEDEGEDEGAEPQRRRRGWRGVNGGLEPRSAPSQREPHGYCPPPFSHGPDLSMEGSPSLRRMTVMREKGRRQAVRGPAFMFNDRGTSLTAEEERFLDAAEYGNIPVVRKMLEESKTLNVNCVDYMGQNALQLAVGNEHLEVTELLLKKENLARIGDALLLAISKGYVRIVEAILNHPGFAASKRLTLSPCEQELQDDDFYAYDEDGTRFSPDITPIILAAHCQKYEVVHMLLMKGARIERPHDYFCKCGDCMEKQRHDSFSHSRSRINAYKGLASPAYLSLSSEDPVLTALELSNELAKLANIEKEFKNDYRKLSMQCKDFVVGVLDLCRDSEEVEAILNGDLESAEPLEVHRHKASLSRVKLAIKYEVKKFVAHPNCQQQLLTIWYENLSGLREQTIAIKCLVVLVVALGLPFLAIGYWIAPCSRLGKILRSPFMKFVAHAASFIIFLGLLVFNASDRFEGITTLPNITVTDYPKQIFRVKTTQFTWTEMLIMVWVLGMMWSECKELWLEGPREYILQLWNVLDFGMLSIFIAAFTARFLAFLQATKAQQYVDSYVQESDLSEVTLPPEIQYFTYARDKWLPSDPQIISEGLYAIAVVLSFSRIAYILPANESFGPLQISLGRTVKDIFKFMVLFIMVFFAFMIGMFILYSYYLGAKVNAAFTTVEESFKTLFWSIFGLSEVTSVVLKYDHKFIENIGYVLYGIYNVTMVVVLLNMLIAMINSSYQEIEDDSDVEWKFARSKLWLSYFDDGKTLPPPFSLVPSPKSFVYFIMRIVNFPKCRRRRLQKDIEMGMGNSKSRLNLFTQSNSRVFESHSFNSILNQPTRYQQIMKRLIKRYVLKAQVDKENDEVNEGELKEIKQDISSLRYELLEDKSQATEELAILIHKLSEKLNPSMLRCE
Experimental: as §1

[3] = Table 3, read-out: inhibitory activity IC50 TRPC4
[4] = Table 3, read-out: inhibitory activity IC50 TRPC3

Row | Structure (SMILES) | IC50 [1, 3] [nM] | IC50 [2, 4] [nM] | relative selectivity TRPC3/ TRPC5 [2] | IC50 [1] [nM] | IC50 [2] [nM]
1 | COC1CCC(F)(c2nc3c(c(=O)n(CCCO)c(=O)n3C)n2Cc2ccc(Cl)cc2)CC1 (stereo not drawn) [Example E32, 7-(4-chlorobenzyl)-8-(1-fluoro-4-methoxycyclohexyl)-1-(3-hydroxypropyl)-3-methyl-3,7-dihydro-1H-purine-2,6-dione] | 18.4 | > 10000 | > 980 |  | 
2 | Cn1c(=O)n(CCCO)c(=O)c2c1nc(C1(F)CCC(C(F)(F)F)CC1)n2Cc1ccc(Cl)cc1 (stereo not drawn) [Example E21, 7-(4-chlorobenzyl)-8-(1-fluoro-4-(trifluoromethyl)cyclohexyl)-1-(3-hydroxypropyl)-3-methyl-3,7-dihydro-1H-purine-2,6-dione] | 8.3 | 2830 | 555 |  | 
3 | Cn1c(=O)n(CCCO)c(=O)c2c1nc(C1(F)CCC(C(F)(F)F)CC1)n2Cc1ccc(F)c(F)c1 (stereo not drawn) [Example E52] |  |  | 1946 | 5.7 | 2530
